Test results published in US20240117431A1, “STEM-CELL BASED BIOMARKER DISCOVERY” (THE REGENTS OF THE UNIVERSITY OF CALIFORNIA, priority 2020, published 2024).

Tests used:
[1] = test system: 3×MT-TgUPRT transfected HEK293 cells; test: RNA fluorescence imaging via IEDDA (confocal microscopy); assay type: cell-based, Toxoplasma gondii; conditions: 1 mM, 24 hours, tetrazene biotin + fluorophore-streptavidin, FIG. 10A
Description: RNA fluorescence imaging via IEDDA: The cell culture dishes and glass coverslips were coated with poly-D-lysine (10 μg/ml) for 24 h at 37° C. and washed three times with autoclaved water to remove the excessive amount of poly-D lysine. HEK293 cells were seeded on glass coverslips at 2.5×105 in a 6-well plate. Twenty-four hours post-seeding, cells were transiently transfected with 1 μg WT- or MT-TgUPRT using jetPRIME transfection reagent according to the manufacturers manual (Polyplus Transfection, France). Twenty-four hours post-transfection, cells were treated with DMSO or 1 mM 5VU for 24 hours. After labeling, cells were washed 3× with DPBS, fixed and permeabilized for 30 min at room temperature with 3.7% paraformaldehyde and 0.15% Triton-X100. Cells were then washed three times (7 min/each) on orbital shaker with DPBS, blocked with Streptavidin (2 mg/mL in DPBS) for 30 minutes and followed with BSA (1 mg/ml in DPBS, 0.45% NaCl and 0.025% NaN3) for 30 min at room temperature, washed 2× with DPBS. Blocked cells were incubated with 200-500 μL of 1 mM biotin-tetrazine solution in water for 3 hours at 37° C. […] Slides were imaged via fluorescence confocal microscopy using a 63× oil immersion objective on a […] Carl Zeiss microscope. […]

HEK cells = test: Trypan blue cell viability / proliferation; assay type: cell-based; conditions: triple mutant TgUPRT + 5VU 200 μM, 5, 16, 24h, versus untreated cells, FIG. 11
Description: Equal amount HEK cells (2×10^5) were seeded in a 6-well plate with 2 mL media. Twenty-four hour […], HEK cells were transfected with 1 μg empty plasmid (No GFP nor TgUPRT), double (2×MT) or triple (3×MT) TgUPRT mutants. 5VU was added to cells at 200 μM final concentration for 5, 16 and 24h treatment so that by the time cells were assayed with Trypan blue, they underwent 48h post transfection. DMSO (carrier) treatment (negative control) was done for 24h. Cells were stained with 0.04% Trypan blue for 5 minutes and subjected to cell counting using Countess II FL (Invitrogen, USA). Per condition, counting was done with n=2× biological and 3× technical replicates.

In the case of `C=Cc1c[nH]c(=O)[nH]c1=O` [compound 2, 5-Vinylpyrimidine-2,4(1H,3H)-dione], the “fluorescent signal of labeled RNA” value [1] is reported as “fluorescent signal was observed only in the presence of both 2 and 3×MT-TgUPRT transfected cells” and the “cell viability, Trypan blue” value (HEK cells) is reported as “non-significant differences to untreated cells”.
